Experiments:
non-human primates = test system: non-human primates; parameters: method as in PMID 30158150; conditions: cited from earlier work
mice [1] = test system: mice; parameters: method as in PMID 17132815, PMID 23652222; conditions: cited from earlier work
mice [2] = test: CFA-induced chronic inflammatory pain, thermal sensitivity (Hargreaves test); format: in vivo, mouse; conditions: 15.5 µmol/kg s.c.
mice [3] = test: CFA-induced chronic inflammatory pain, mechanical sensitivity (von Frey test); format: in vivo, mouse; conditions: 15.5 µmol/kg s.c.
mice [4] = test: Conditioned place preference (CPP); conditions: 15.5 µmol/kg s.c., 4-day conditioning
mice [5] = test: Naloxone-precipitated withdrawal syndrome; conditions: 15.5 µmol/kg s.c. daily 5 days; naloxone 1 mg/kg s.c.
mice [6] = test: Open-field test (spontaneous locomotor activity); conditions: 15.5 µmol/kg s.c. daily, day 1 to day 4
mice [7] = test: Formalin test (formalin-induced acute inflammatory pain); conditions: for %Antinociceptive effect Phase I: Phase I 0-5 min; for %Antinociceptive effect Phase II: Phase II 15-60 min

Compound: CC(C)C1CCC(N2CCC3(CC2)C(=O)N(CCNS(N)(=O)=O)Cc2ccccc23)CC1 (stereo not shown) [AT-121]
- Antinociception and side effects (non-human primates): produced antinociception with reduced respiratory depression and physical dependence

Compound: O=C1Cc2ccccc2N1C1CCN(C2C3CCCC2CCC3)CC1 (stereo not shown) [SR16435, 1-(1-(bicyclo [3.3. 1]nonan-9-yl)piperidin-4-yl) indolin-2-one]
- CPP in mice (mice [1]): induced CPP in mice to the same extent as morphine

Compound: CN1CC[C@]23c4c5ccc(O)c4O[C@H]2[C@@H](O)C=C[C@H]3[C@H]1C5 [morphine, reference compound]
- Time of peak antihyperalgesic effect (mice [2]): 30 min
- Time points of significant reduction in thermal hyperalgesia vs saline (mice [2]): 30 min and one hour
- % reversal of thermal sensitivity (mice [2]; 30 min): 68.6%
- % reversal of thermal sensitivity (mice [2]; 1 h): 36.1%
- % reversal of thermal sensitivity (mice [2]; 2 h): 19.6%
- % reversal of thermal sensitivity (mice [2]; 3 h): 13.8%
- % reversal of thermal sensitivity (mice [2]; 4 h): -1.96%
- % reversal of thermal sensitivity (mice [2]; 5 h): 0.43%
- % reversal of thermal sensitivity (mice [2]; 6 h): -0.40%
- % reversal of thermal sensitivity (mice [2]; 24 h): 0.00%
- Time points of significant effect on mechanical stimulation vs saline (mice [3]): 30 min and one hour
- % reversal of mechanical sensitivity (mice [3]; 30 min): 63.4%
- % reversal of mechanical sensitivity (mice [3]; 1 h): 50.6%
- % reversal of mechanical sensitivity (mice [3]; 2 h): 18.9%
- % reversal of mechanical sensitivity (mice [3]; 3 h): 6.62%
- % reversal of mechanical sensitivity (mice [3]; 4 h): 1.57%
- % reversal of mechanical sensitivity (mice [3]; 5 h): 11.7%
- % reversal of mechanical sensitivity (mice [3]; 6 h): -2.29%
- % reversal of mechanical sensitivity (mice [3]; 24 h): 1.68%
- CPP response vs saline (mice [4]): significant CPP response
- Global withdrawal score vs saline (mice [5]): significantly increased withdrawal
- Spontaneous locomotor activity (distance traveled) vs saline (mice [6]): significant increase in the distance traveled
- %Antinociceptive effect Phase I (mice [7]; 3.11 µmol/kg s.c.): 19.4 ± 6.7%
- %Antinociceptive effect Phase II (mice [7]; 3.11 µmol/kg s.c.): 24.8 ± 11.6%
- %Antinociceptive effect Phase I (mice [7]; 7.77 µmol/kg s.c.): 32.6 ± 5.7%
- %Antinociceptive effect Phase II (mice [7]; 7.77 µmol/kg s.c.): 57.5 ± 8.3%
- Pain response counted between 15 and 60 min (mice [7]; 15.5 µmol/kg s.c.): almost complete inhibition of the pain response
- %Antinociceptive effect Phase I (mice [7]; 15.5 µmol/kg s.c.): 38.4 ± 10.9%
- %Antinociceptive effect Phase II (mice [7]; 15.5 µmol/kg s.c.): 79.1 ± 7.5%

— PMC8198056 (Molecules, 2021)
